# According to patent publication US10487348B2, “3-alpha-hydroxysteroid dehydrogenase mutants and process for the preparation of ursodeoxycholic acid” (Pharmazell GmbH, priority 2014, dated 2019):
# Residue numbers refer to the chain shown, from its start.
# Tests used:
# [1] = biological target: T1, Comamonas testosteroni 3α-HSDH dual mutant [L68A/T188S], N-terminal hexahistidine tag (Comamonas testosteroni, UniProt P80702, L68A/T188S)
# T1 sequence (P80702 1-257 L68A/T188S): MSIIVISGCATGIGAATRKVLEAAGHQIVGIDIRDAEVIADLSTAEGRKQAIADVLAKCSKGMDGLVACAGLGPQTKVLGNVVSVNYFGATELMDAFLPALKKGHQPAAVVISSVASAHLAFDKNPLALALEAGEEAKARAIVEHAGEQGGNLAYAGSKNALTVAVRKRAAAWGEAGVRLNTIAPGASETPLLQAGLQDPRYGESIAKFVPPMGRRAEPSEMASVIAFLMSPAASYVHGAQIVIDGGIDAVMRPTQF
# Method: (§1) The activity of the 3α-HSDH and of the mutants was determined using a photometric assay, where the decrease in absorbance was measured at 340 nm over a period of 30 seconds.
# [2] = biological target: T2, Comamonas testosteroni 3α-HSDH mutant [P185A], N-terminal hexahistidine tag (Comamonas testosteroni, UniProt P80702, P185A); experiment: Kinetics of 3α-HSDH [P185A], N-terminal His tag
# T2 sequence (P80702 1-257 P185A): T1 sequence (P80702 1-257 L68A/T188S) with A68L, P185A, S188T
# Method: as §1
# [3] = biological target: T3, Comamonas testosteroni 3α-HSDH, wild type, without His tag, SEQ ID NO:4 (Comamonas testosteroni, UniProt P80702); experiment: Michaelis-Menten kinetics of wild-type 3α-HSDH without His tag
# T3 sequence (P80702 1-257): T1 sequence (P80702 1-257 L68A/T188S) with A68L, S188T
# Method: as §1
# [4] = biological target: T4, Comamonas testosteroni 3α-HSDH mutant [T188S], N-terminal hexahistidine tag (Comamonas testosteroni, UniProt P80702, T188S); experiment: Kinetics of 3α-HSDH [T188S], N-terminal His tag
# T4 sequence (P80702 1-257 T188S): T1 sequence (P80702 1-257 L68A/T188S) with A68L
# Method: as §1
# [5] = biological target: T5, Comamonas testosteroni 3α-HSDH dual mutant [P185A/T188A], N-terminal hexahistidine tag (Comamonas testosteroni, UniProt P80702, P185A/T188A); experiment: Kinetics of 3α-HSDH [P185A/T188A], N-terminal His tag
# T5 sequence (P80702 1-257 P185A/T188A): T1 sequence (P80702 1-257 L68A/T188S) with A68L, P185A, S188A
# Method: as §1
# [6] = biological target: T6, Comamonas testosteroni 3α-HSDH mutant [L68A], N-terminal hexahistidine tag (Comamonas testosteroni, UniProt P80702, L68A)
# T6 sequence (P80702 1-257 L68A): T1 sequence (P80702 1-257 L68A/T188S) with S188T
# Method: as §1
# After cultivation and expression, the proteins were purified by means of Ni-NTA chromatography, the specific activities were determined and their kinetic constants were determined.
# [7] = biological target: T7, Comamonas testosteroni 3α-HSDH, wild type, C-terminal 9×His tag (SEQ ID NO: 51) (Comamonas testosteroni, UniProt P80702); experiment: Michaelis-Menten kinetics of 3α-HSDH with 9×His tag
# T7 sequence (P80702 with tags, fused parts or gaps): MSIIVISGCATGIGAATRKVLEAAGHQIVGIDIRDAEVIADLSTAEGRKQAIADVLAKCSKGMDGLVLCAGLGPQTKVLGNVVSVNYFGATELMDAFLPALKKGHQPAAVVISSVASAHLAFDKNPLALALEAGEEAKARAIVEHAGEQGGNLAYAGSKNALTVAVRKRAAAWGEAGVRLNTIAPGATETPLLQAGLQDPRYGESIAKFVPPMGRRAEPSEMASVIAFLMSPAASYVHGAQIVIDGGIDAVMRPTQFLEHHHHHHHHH
# From the text: The His-tag allows for very simple purification of the HSDH protein since this sequence is bound with high specificity by specific chromatographic material (NTA (Ni-nitrilotriacetate)-modified support material, loaded with divalent nickel ions, for example “His Pur Ni-NTA” (Nimagen B. V., Nijmegen, The Netherlands)). To this end, the cell-free crude extract is applied to a dropping column comprising this material, which dropping column has previously been equilibrated with the disruption buffer (3 to 5 column volumes). Weakly binding protein was removed by washing with 3 to 5 column volumes of wash buffer (20 mM imidazole, 50 mM sodium phosphate, 300 mM NaCl, pH 8). […] The process was carried out at room temperature. The imidazole which was present was to be removed by buffer exchange.
# as §1
# Following expression (25° C., 0.5 mM, IPTG, 20 hours), the protein was purified, and the expression and the purification were checked by means of an SDS gel. […] The NADH concentration was 0.2 mM. Purified protein was employed in the measurements.
# [8] = Table 14, substrate DHCA, tag N, apparent values
# [9] = Table 14, substrate DHCA, tag N, NADH 0.2 mM, apparent values
# [10] = His tag length 9, DHCA 10 μM-10 mM, NADH 0.2 mM, purified
structure (smiles),measurement,setting,value
"C[C@H](CCC(=O)O)[C@H]1CC[C@H]2[C@@H]3C(=O)C[C@@H]4CC(=O)CC[C@]4(C)[C@H]3CC(=O)[C@]12C [DHCA, dehydrocholic acid]",kcat,[1]; [8],91.8 s⁻¹
same,vmax,[1]; [8],193.2 ± 11.4 U/mg
same,remaining activity at 10000 µM,[1]; read-out: residual activity,~20%
same,kcat,[2]; [8],48.5 s⁻¹
same,vmax,[2]; [8],102.8 ± 5.7 U/mg
same,remaining activity at 10000 µM,[2]; read-out: residual activity,5%
same,vmax,"[3]; Table 14, substrate DHCA, no tag, apparent values",134 ± 3.8 U/mg
same,residual activity,"[3]; after increasing DHCA further above approximately 1 mM, substrate excess inhibition",10-20%
same,kcat,[4]; [8],158.2 s⁻¹
same,vmax,[4]; [8],332.5 ± 59.9 U/mg
same,remaining activity at 20000 µM,[4]; read-out: residual activity,> 20%
same,kcat,[5]; [8],17.6 s⁻¹
same,vmax,[5]; [8],36.9 ± 2.6 U/mg
same,remaining activity at 10000 µM,[5]; read-out: residual activity,~30%
same,kcat,[6]; [9],138.0 s⁻¹
same,vmax,[6]; [9],290.0 ± 45.4 U/mg
same,remaining activity at 1000 µM,[6]; read-out: residual activity,~15%
same,remaining activity at 10000 µM,[6]; read-out: residual activity,~8%
same,KM value better than the variant with 3 histidines,"[7]; DHCA, 9 vs 3 histidines",14 fold
same,kcat,[7]; [10],8.9 ± 0.5 s⁻¹
same,vmax,[7]; [10],19.2 ± 1.1 U/mg
